Results: ChEMBL document CHEMBL1201862, “PubChem BioAssay data set” (2004)
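Values below derive from 48-hour exposures of cells grown in 96-well plates, with endpoints linearly interpolated between the two concentrations bracketing the appropriate inhibition level. The concentration for 50% growth inhibition is given as GI50.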 Activity calls are given as the source filed them. Cut-off read from the data, not from the text of the source: active = GI50 up to about 1.1 µM and inactive = higher.

Assays:
Test in all cases: inhibition of tumour cell growth, NCI panel, 48 h
[1] = tested on: SK-MEL-5
[2] = tested on: MDA-MB-231
[3] = tested on: NCI-H460
[4] = tested on: SF-268
[5] = tested on: UACC-62
[6] = tested on: RPMI-8226
[7] = tested on: Hs-578T
[8] = tested on: SK-MEL-2
[9] = tested on: NCI/ADR-RES
[10] = tested on: IGROV-1
[11] = tested on: CAKI-1
[12] = tested on: RXF 393
[13] = tested on: NCI-H226
[14] = tested on: SN12C
[15] = tested on: CCRF-CEM
[16] = tested on: SF-295
[17] = tested on: HOP-18
[18] = tested on: SK-OV-3
[19] = tested on: NCI-H23
[20] = tested on: MDA-MB-435

SMILES	GI50 [1]	GI50 [2]	GI50 [3]	GI50 [4]	GI50 [5]	GI50 [6]	GI50 [7]	GI50 [8]	GI50 [9]	GI50 [10]	GI50 [11]	GI50 [12]	GI50 [13]	GI50 [14]	GI50 [15]	GI50 [16]	GI50 [17]	GI50 [18]	GI50 [19]	GI50 [20]
CC1(C)CC(Nc2ccc(Nc3ccccc3)cc2)CC(C)(C)N1	15.2 µM (inactive)	14.9 µM (inactive)	27.9 µM (inactive)	43.3 µM (inactive)	16.1 µM (inactive)	12.7 µM (inactive)	25.4 µM (inactive)	23.8 µM (inactive)	21.9 µM (inactive)	44.1 µM (inactive)	22.9 µM (inactive)	18 µM (inactive)	17.1 µM (inactive)	48.6 µM (inactive)	6.41 µM (inactive)	68.2 µM (inactive)	> 100 µM (inactive)	> 100 µM (inactive)	42.4 µM (inactive)	16.8 µM (inactive)
COc1cccc2c1C(=O)c1c(O)c3c(c(O)c1C2=O)C[C@@](O)(C(=O)CO)CC3OC1CC(O)C(O)C(C)O1 (some centres undefined)	0.142 µM (active)	0.565 µM (active)	< 0.01 µM (active)	0.21 µM (active)	0.125 µM (active)	0.199 µM (active)		0.608 µM (active)	1.13 µM (inactive)	0.333 µM (active)	0.185 µM (active)	0.238 µM (active)	0.0218 µM (active)	0.115 µM (active)	0.0217 µM (active)	0.104 µM (active)	0.277 µM (active)	0.235 µM (active)	0.0879 µM (active)	0.834 µM (active)
